Measured values published in paper PMC3747139 (PLoS ONE, 2013).
Like-named read-outs stand apart in the source and are kept apart here. Marks after values point to notes of the source that are not given here.

What was measured:
HQF DNA [d(T2AG3)4] = test: SYBR Green melting study with HQF DNA; assay type: binding, human; details: melting temperature of HQF DNA (5 µM) in presence of 1 µM ligand
Experimental: When quadruplex DNA melts to form ssDNA structure, SG fluorescence intensity gradually reduces as SG has no binding to ssDNA. Each time, 5 µM of HQF DNA [d(T2AG3)4)], 5 µM of dsDNA (prepared by mixing equal concentration of poly-dA-dT and poly-dT-dA), 5 µM ssDNA ( poly dT alone) and 1 µM of each ligand was incubated at 4°C for 16 h, and used for melting studies. […] Affinity, stoichiometry and thermodynamic parameters for quadruplex-ligand complex were studied with 60 µM of ligand and 10 µM of HQF DNA using Microcal VP-ITC (Northampton, MA, USA). Ligand addition to G-quadruplex DNA was made every 180 seconds. Titration experiments were performed thrice and blank correction was made each time to minimize error.

[1] = Cell count assay (trypan blue); assay type: cell-based; design: concentration or dose not given beside the values; details: human; for viability at 24 h: read-out: Number of viable cells after 24 h of ligand treatment; for viability at 48 h: read-out: Number of viable cells after 48 h of ligand treatment
Experimental: (§1) Normal and tumor cell lines were seeded at 20000–40000 cells/cm^2 with 0.2 mL/cm^2 media and incubated for 48 h at 37°C, 6% CO2, 95% relative humidity. […] After 24 h and 48 h of incubation, cells were washed with 300 µl PBS or 0.02% EDTA, trypsinized, followed by harvesting at 37°C. 200 µl cell suspension was transferred into 1.5 ml microcentrifuge tube. To the cell suspension, 300 µl PBS followed by 500 µl of 0.4% trypan blue solution was added. To get the homogenised solution, the microcentrifuge tube was gently tapped for 5 min, 20 µl of cell suspension was loaded in to a chamber of the haemocytometer.

B16F10 = test: Cell count assay (trypan blue); assay type: cell-based, human; details: for Number of viable cells after 24 h of ligand treatment: B16F10, 24 h; for Number of viable cells after 48 h of ligand treatment: B16F10, 48 h
Experimental: as §1

MCF-7 = test: Cell count assay (trypan blue); assay type: cell-based, human; details: for Number of viable cells after 24 h of ligand treatment: MCF-7, 24 h; for Number of viable cells after 48 h of ligand treatment: MCF-7, 48 h;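 for Number of viable cells after 48 h of ligand treatment: each ligand tested at its own IC50 concentration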
Experimental: as §1

A549 = test: Cell count assay (trypan blue); assay type: cell-based, human; details: for Number of viable cells after 24 h of ligand treatment: A549, 24 h; for Number of viable cells after 48 h of ligand treatment: A549, 48 h;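 for Number of viable cells after 24 h of ligand treatment: each ligand tested at its own IC50 concentration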
Experimental: as §1

[2] = CRL-2115 cells (normal cell line), CRL-2115, 24 h
[3] = CRL-2115 cells (normal cell line), CRL-2115, 48 h
[4] = CRL-2120 cells (normal cell line), CRL-2120, 24 h
[5] = CRL-2120 cells (normal cell line), CRL-2120, 48 h
[6] = NCM-460 cells (normal cell line), NCM-460, 24 h
[7] = NCM-460 cells (normal cell line), NCM-460, 48 h

## Oc1cccc(-c2c(-c3ccccc3)nnn2CC2CCCCO2)c1 (stereo not shown) [Ligand L8]
HQF DNA [d(T2AG3)4]
  Tm: 27 ^o C

## c1ccc(Cn2nnc(-c3ccccc3)c2-c2ccccc2)cc1 [Ligand L4, 1-Benzyl-4,5-diphenyl-1H-1,2,3-triazole]
HQF DNA [d(T2AG3)4]
  Tm: 32 ^o C
[1]; [2]
  viability at 24 h: 80 to 90%
[1]; [3]
  viability at 48 h: 50 to 60%
[1]; [4]
  viability at 24 h: 80 to 90%
[1]; [5]
  viability at 48 h: 80 to 90%
[1]; [6]
  viability at 24 h: 80 to 90%
[1]; [7]
  viability at 48 h: 50 to 60%
B16F10
  Number of viable cells after 24 h of ligand treatment: ++/++ (Viable cells in the range of 50%–60%)
  Number of viable cells after 48 h of ligand treatment: ++/++ (Viable cells in the range of 50%–60%)
MCF-7
  Number of viable cells after 24 h of ligand treatment: ++/++ (Viable cells in the range of 50%–60%)
  Number of viable cells after 48 h of ligand treatment: ++/++ (Viable cells in the range of 50%–60%)
A549
  Number of viable cells after 24 h of ligand treatment: + (Viable cells in the range of 80%–90%)
  Number of viable cells after 48 h of ligand treatment: ++ (Viable cells in the range of 50%–60%)

## CCOC(=O)c1nnn(Cc2ccccc2)c1-c1ccccc1 [Ligand L9, Ethyl 1-benzyl-5-phenyl-1H-1,2,3-triazole-4-carboxylate]
HQF DNA [d(T2AG3)4]
  Tm: 29 ^o C
[1]; [2]
  viability at 24 h: 80 to 90%
[1]; [3]
  viability at 48 h: 50 to 60%
[1]; [4]
  viability at 24 h: 80 to 90%
[1]; [5]
  viability at 48 h: 80 to 90%
[1]; [6]
  viability at 24 h: 80 to 90%
[1]; [7]
  viability at 48 h: 80 to 90%
B16F10
  Number of viable cells after 24 h of ligand treatment: + (Viable cells in the range of 80%–90%)
  Number of viable cells after 48 h of ligand treatment: ++ (Viable cells in the range of 50%–60%)
MCF-7
  Number of viable cells after 24 h of ligand treatment: +/+ (Viable cells in the range of 80%–90%)
  Number of viable cells after 48 h of ligand treatment: +/+ (Viable cells in the range of 80%–90%)
A549
  Number of viable cells after 24 h of ligand treatment: + (Viable cells in the range of 80%–90%)
  Number of viable cells after 48 h of ligand treatment: ++ (Viable cells in the range of 50%–60%)

## CCOC(=O)c1nnn(Cc2ccccc2)c1/C=C/c1ccccc1 [Ligand L10, (E)-Ethyl 1-benzyl-5-styryl-1H-1,2,3-triazole-4-carboxylate]
HQF DNA [d(T2AG3)4]
  Tm: 33 ^o C
[1]; [2]
  viability at 24 h: 80 to 90%
[1]; [3]
  viability at 48 h: 80 to 90%
[1]; [4]
  viability at 24 h: 80 to 90%
[1]; [5]
  viability at 48 h: 80 to 90%
[1]; [6]
  viability at 24 h: 80 to 90%
[1]; [7]
  viability at 48 h: 50 to 60%
B16F10
  Number of viable cells after 24 h of ligand treatment: + (Viable cells in the range of 80%–90%)
  Number of viable cells after 48 h of ligand treatment: ++ (Viable cells in the range of 50%–60%)
MCF-7
  Number of viable cells after 24 h of ligand treatment: + (Viable cells in the range of 80%–90%)
  Number of viable cells after 48 h of ligand treatment: ++ (Viable cells in the range of 50%–60%)
A549
  Number of viable cells after 24 h of ligand treatment: +/+ (Viable cells in the range of 80%–90%)
  Number of viable cells after 48 h of ligand treatment: +/+ (Viable cells in the range of 80%–90%)

## Oc1cccc(-c2c(-c3ccccc3)nnn2CC2CCCCO2)c1 (stereo not shown) [Ligand L13, 3-(5-Phenyl-3-((tetrahydro-2H-pyran-2-yl)methyl)-3H-1,2,3-triazol-4-yl)phenol]
HQF DNA [d(T2AG3)4]
  Tm: 33 ^o C
[1]; [2]
  viability at 24 h: 80 to 90%
[1]; [3]
  viability at 48 h: 80 to 90%
[1]; [4]
  viability at 24 h: 80 to 90%
[1]; [5]
  viability at 48 h: 80 to 90%
[1]; [6]
  viability at 24 h: 80 to 90%
[1]; [7]
  viability at 48 h: 80 to 90%
B16F10
  Number of viable cells after 24 h of ligand treatment: + (Viable cells in the range of 80%–90%)
  Number of viable cells after 48 h of ligand treatment: ++ (Viable cells in the range of 50%–60%)
MCF-7
  Number of viable cells after 24 h of ligand treatment: +/+ (Viable cells in the range of 80%–90%)
  Number of viable cells after 48 h of ligand treatment: +/+ (Viable cells in the range of 80%–90%)
A549
  Number of viable cells after 24 h of ligand treatment: +/+ (Viable cells in the range of 80%–90%)
  Number of viable cells after 48 h of ligand treatment: +/+ (Viable cells in the range of 80%–90%)

## C(=C\c1c(-c2ccccc2)nnn1CC1CCCCO1)/c1ccccc1 (stereo not shown) [Ligand L12, (E)-4-Phenyl-5-styryl-1-((tetrahydro-2H-pyran-2-yl)methyl)-1H-1,2,3-triazole]
HQF DNA [d(T2AG3)4]
  Tm: 31 ^o C
[1]; [2]
  viability at 24 h: 80 to 90%
[1]; [3]
  viability at 48 h: 80 to 90%
[1]; [4]
  viability at 24 h: 80 to 90%
[1]; [5]
  viability at 48 h: 80 to 90%
[1]; [6]
  viability at 24 h: 80 to 90%
[1]; [7]
  viability at 48 h: 50 to 60%
B16F10
  Number of viable cells after 24 h of ligand treatment: + (Viable cells in the range of 80%–90%)
  Number of viable cells after 48 h of ligand treatment: ++ (Viable cells in the range of 50%–60%)
MCF-7
  Number of viable cells after 24 h of ligand treatment: + (Viable cells in the range of 80%–90%)
  Number of viable cells after 48 h of ligand treatment: ++ (Viable cells in the range of 50%–60%)
A549
  Number of viable cells after 24 h of ligand treatment: +/+ (Viable cells in the range of 80%–90%)
  Number of viable cells after 48 h of ligand treatment: +/+ (Viable cells in the range of 80%–90%)

## COc1ccc(-c2c(-c3ccccc3)nnn2CC2CCCCO2)cc1 (stereo not shown) [Ligand L14, 5-(4-Methoxyphenyl)-4-phenyl-1-((tetrahydro-2H-pyran-2-yl)methyl)-1H-1,2,3-triazole]
HQF DNA [d(T2AG3)4]
  Tm: 27 ^o C
[1]; [2]
  viability at 24 h: 80 to 90%
[1]; [3]
  viability at 48 h: 80 to 90%
[1]; [4]
  viability at 24 h: 80 to 90%
[1]; [5]
  viability at 48 h: 80 to 90%
[1]; [6]
  viability at 24 h: 80 to 90%
[1]; [7]
  viability at 48 h: 50 to 60%
B16F10
  Number of viable cells after 24 h of ligand treatment: + (Viable cells in the range of 80%–90%)
  Number of viable cells after 48 h of ligand treatment: ++ (Viable cells in the range of 50%–60%)
MCF-7
  Number of viable cells after 24 h of ligand treatment: + (Viable cells in the range of 80%–90%)
  Number of viable cells after 48 h of ligand treatment: ++ (Viable cells in the range of 50%–60%)
A549
  Number of viable cells after 24 h of ligand treatment: + (Viable cells in the range of 80%–90%)
  Number of viable cells after 48 h of ligand treatment: ++ (Viable cells in the range of 50%–60%)

## CCOC(=O)c1nnn(Cc2ccccc2)c1-c1cccc(O)c1 [Ligand L11, Ethyl 1-benzyl-5-(3-hydroxyphenyl)-1H-1,2,3-triazole-4-carboxylate]
HQF DNA [d(T2AG3)4]
  Tm: 28 ^o C
[1]; [2]
  viability at 24 h: 80 to 90%
[1]; [3]
  viability at 48 h: 80 to 90%
[1]; [4]
  viability at 24 h: 80 to 90%
[1]; [5]
  viability at 48 h: 80 to 90%
[1]; [6]
  viability at 24 h: 80 to 90%
[1]; [7]
  viability at 48 h: 80 to 90%
B16F10
  Number of viable cells after 24 h of ligand treatment: + (Viable cells in the range of 80%–90%)
  Number of viable cells after 48 h of ligand treatment: ++ (Viable cells in the range of 50%–60%)
MCF-7
  Number of viable cells after 24 h of ligand treatment: + (Viable cells in the range of 80%–90%)
  Number of viable cells after 48 h of ligand treatment: ++ (Viable cells in the range of 50%–60%)
A549
  Number of viable cells after 24 h of ligand treatment: + (Viable cells in the range of 80%–90%)
  Number of viable cells after 48 h of ligand treatment: ++ (Viable cells in the range of 50%–60%)

## CCCCc1nnn(Cc2ccccc2)c1/C=C/c1ccccc1 [Ligand L5, (E)-1-Benzyl-4-butyl-5-styryl-1H-1,2,3-triazole]
HQF DNA [d(T2AG3)4]
  Tm: 33 ^o C
[1]; [2]
  viability at 24 h: 80 to 90%
[1]; [3]
  viability at 48 h: 50 to 60%
[1]; [4]
  viability at 24 h: 80 to 90%
[1]; [5]
  viability at 48 h: 50 to 60%
[1]; [6]
  viability at 24 h: 80 to 90%
[1]; [7]
  viability at 48 h: 50 to 60%
B16F10
  Number of viable cells after 24 h of ligand treatment: ++/++ (Viable cells in the range of 50%–60%)
  Number of viable cells after 48 h of ligand treatment: ++/++ (Viable cells in the range of 50%–60%)
MCF-7
  Number of viable cells after 24 h of ligand treatment: ++/++ (Viable cells in the range of 50%–60%)
  Number of viable cells after 48 h of ligand treatment: ++/++ (Viable cells in the range of 50%–60%)
A549
  Number of viable cells after 24 h of ligand treatment: + (Viable cells in the range of 80%–90%)
  Number of viable cells after 48 h of ligand treatment: ++ (Viable cells in the range of 50%–60%)

## CCCCc1nnn(Cc2ccccc2)c1-c1cccc(O)c1 [Ligand L6, 3-(3-Benzyl-5-butyl-3H-1,2,3-triazol-4-yl)phenol]
HQF DNA [d(T2AG3)4]
  Tm: 33 ^o C
[1]; [2]
  viability at 24 h: 80 to 90%
[1]; [3]
  viability at 48 h: 50 to 60%
[1]; [4]
  viability at 24 h: 80 to 90%
[1]; [5]
  viability at 48 h: 50 to 60%
[1]; [6]
  viability at 24 h: 50 to 60%
[1]; [7]
  viability at 48 h: 50 to 60%
B16F10
  Number of viable cells after 24 h of ligand treatment: + (Viable cells in the range of 80%–90%)
  Number of viable cells after 48 h of ligand treatment: ++ (Viable cells in the range of 50%–60%)
MCF-7
  Number of viable cells after 24 h of ligand treatment: + (Viable cells in the range of 80%–90%)
  Number of viable cells after 48 h of ligand treatment: ++ (Viable cells in the range of 50%–60%)
A549
  Number of viable cells after 24 h of ligand treatment: ++/++ (Viable cells in the range of 50%–60%)
  Number of viable cells after 48 h of ligand treatment: ++/++ (Viable cells in the range of 50%–60%)
